Patent US12501900B2, “Heterocyclyl pyridazine as fungicidal compounds” (Bayer Aktiengesellschaft, priority 2018, dated 2025)
Where two headings read alike, the source gives them in different places. One block for each compound: values may come before it.

Experiment: Measurement of LogP values by HPLC on reversed phase columns (EEC directive 79/831 Annex V.A8), methods [a], [b], [c]
Type: physicochemical
Experimental: Measurement of Log P values as provided herein was performed according to EEC directive 79/831 Annex V.A8 by HPLC (High Performance Liquid Chromatography) on reversed phase columns with the following methods: • ^[a]
If more than one Log P value is available within the same method, all the values are given and separated by “+”.
Lambda-max-values were determined using UV-spectra from 200 nm to 400 nm and the peak values of the chromatographic signals

[1] = method [a]: LC-UV, acidic range, 0.1% formic acid in water and acetonitrile, Table 7, compounds of formula (3)
[2] = method [a], Table 9, compounds of formula (4)
[3] = method [a]: LC-UV, acidic range, 0.1% formic acid in water and acetonitrile, Table 11, compounds of formula (6)
[4] = method [a]: LC-UV, acidic range, 0.1% formic acid in water and acetonitrile, Table 3, compounds of formula (1)
[5] = method [a]: LC-UV, acidic range, 0.1% formic acid in water and acetonitrile, Table 15, compounds of formula (9)
[6] = method [a]: LC-UV, acidic range, 0.1% formic acid in water and acetonitrile, Table 17, compounds of formula (10)
[7] = method [a], Table 19, compounds of formula (12), two values joined by & in some cells

chromatographic logP (reversed phase HPLC column, method [a]: LC-UV, acidic range, 0.1% formic acid in water and acetonitrile, Table 5, compounds of formula (2)): 1.7
SMILES: Cc1ccc(OCC(N)CON2C(=O)c3ccccc3C2=O)c(C)c1 (racemic) [2-12, 2-[rac-2-amino-3-(2,4-dimethylphenoxy)propoxy]isoindoline-1,3-dione 2,2,2-trifluoroacetate]

SMILES: Cc1ccc(OCC(CON2C(=O)c3ccccc3C2=O)NC(=O)OC(C)(C)C)c(C)c1 (racemic) [2-13, tert-butyl N-[rac-1-[(2,4-dimethylphenoxy)methyl]-2-(1,3-dioxoisoindolin-2-yl)oxy-ethyl]carbamate]
chromatographic logP (method [a]: LC-UV, acidic range, 0.1% formic acid in water and acetonitrile, Table 5, compounds of formula (2)): 4.51

SMILES: Cc1ccc(CC(CON2C(=O)c3ccccc3C2=O)NC(=O)c2cc(Cl)nnc2Oc2cccc(C(F)(F)F)c2)c(C)c1 (racemic) [3-16, 6-chloro-N-[rac-1-[(2,4-dimethylphenyl)methyl]-2-(1,3-dioxoisoindolin-2-yl)oxy-ethyl]-3-[3-(trifluoromethyl)phenoxy]pyridazine-4-carboxamide]
chromatographic logP [1]: 5

SMILES: Cc1ccc(OCC(CON2C(=O)c3ccccc3C2=O)NC(=O)c2cc(C)nnc2Oc2cccc(C(F)(F)F)c2)c(C)c1 (racemic) [3-33, 6-methyl-N-[rac-1-[(2,4-dimethylphenoxy)methyl]-2-(1,3-dioxoisoindolin-2-yl)oxy-ethyl]-3-[3-(trifluoromethyl)phenoxy]pyridazine-4-carboxamide]
chromatographic logP [1]: 4.56

SMILES: Cc1ccc(CC(CON)NC(=O)c2cc(Cl)nnc2Oc2cccc(C(F)(F)F)c2)c(C)c1 (racemic) [4-17, 6-chloro-N-[rac-1-(aminooxymethyl)-2-(2,4-dimethylphenyl)ethyl]-3-[3-(trifluoro-methyl)phenoxy]pyridazine-4-carboxamide]
chromatographic logP [2]: 3.37

SMILES: Cc1ccc(OCC(CON)NC(=O)c2cc(C)nnc2Oc2cccc(C(F)(F)F)c2)c(C)c1 (racemic) [4-33, 6-methyl-N-[rac-1-(aminooxymethyl)-2-(2,4-dimethylphenoxy)ethyl]-3-[3-(trifluoromethyl)phenoxy]pyridazine-4-carboxamide]
chromatographic logP [2]: 3.13

SMILES: Cc1ccc(CC(CON2C(=O)c3ccccc3C2=O)NC(=O)c2cc(Cl)nnc2Cl)c(C)c1 (racemic) [6-01, 3,6-dichloro-N-[rac-1-[(2,4-dimethylphenyl)methyl]-2-(1,3-dioxoisoindolin-2-yl)oxy-ethyl]pyridazine-4-carboxamide]
chromatographic logP [3]: 3.72

SMILES: Cc1ccc(CC(CON)NC(=O)c2cc(Cl)nnc2Cl)c(C)c1 (racemic) [6-02, 3,6-dichloro-N-[rac-1-(aminooxymethyl)-2-(2,4-dimethylphenyl)ethyl]pyridazine-4-carboxamide]
chromatographic logP [3]: 1.93

SMILES: Cc1ccc(CC2CON=C(c3cc(Cl)nnc3Cl)N2)c(C)c1 (racemic) [7-01, rac-3-(3,6-dichloropyridazin-4-yl)-5-[(2,4-dimethylphenyl)methyl]-5,6-dihydro-4H-1,2,4-oxadiazine]
chromatographic logP (method [a]: LC-UV, acidic range, 0.1% formic acid in water and acetonitrile, Table 13, compounds of formula (7)): 2.98

SMILES: Cc1cc(C2=NOCC(O)N2)c(Oc2cccc(C(F)(F)F)c2)nn1 (racemic) [14-01, rac-3-[6-methyl-3-[3-(trifluoromethyl)phenoxy]pyridazin-4-yl]-5,6-dihydro-4H-1,2,4-oxadiazin-5-ol]
chromatographic logP (method [a]: LC-UV, acidic range, 0.1% formic acid in water and acetonitrile, Table 23, compounds of formula (14)): 1.59

SMILES: Cc1c(Cl)nnc(Oc2cccc(C3CC3)c2F)c1C(=O)O [1-02, 6-chloro-3-(3-cyclopropyl-2-fluoro-phenoxy)-5-methyl-pyridazine-4-carboxylic acid]
chromatographic logP [4]: 1.84

LogP [4]: 2.33^[a]
SMILES: CON(C)C(=O)c1cc(C)nnc1Oc1cccc(C(F)(F)F)c1 [1-03]

chromatographic logP (reversed phase HPLC column, method [a]: LC-UV, acidic range, 0.1% formic acid in water and acetonitrile, Table 3, compounds of formula (1)): 2.9
SMILES: CON(C)C(=O)c1cc(Cl)nnc1Oc1cccc(C(F)(F)F)c1 [1-07, 6-chloro-N-methoxy-N-methyl-3-[3-(trifluoromethyl)phenoxy]pyridazine-4-carboxamide]

SMILES: Cc1cc(C#N)c(Oc2cccc(C(F)(F)F)c2)nn1 [9-02, 6-methyl-3-[3-(trifluoromethyl)phenoxy]pyridazine-4-carbonitrile]
chromatographic logP [5]: 2.84

SMILES: N#Cc1cc(Cl)nnc1Oc1cccc(C(F)(F)F)c1 [9-03, 6-chloro-3-[3-(trifluoromethyl)phenoxy]pyridazine-4-carbonitrile]
chromatographic logP [5]: 3.25

LogP [5]: 2.75^[a]
SMILES: COc1cccc(Oc2nnc(Cl)cc2C#N)c1 [9-08]

SMILES: Cc1cc(C(N)=NO)c(Oc2cccc(C(F)(F)F)c2)nn1 [10-02, N′-hydroxy-6-methyl-3-[3-(trifluoromethyl)phenoxy]pyridazine-4-carboxamidine]
chromatographic logP [6]: 1.69

LogP [6]: 2.00^[a]
SMILES: NC(=NO)c1cc(Cl)nnc1Oc1cccc(Cl)c1 [10-04]

LogP [6]: 2.21^[a]
SMILES: NC(=NO)c1cc(Cl)nnc1Oc1cccc(Br)c1F [10-05]

LogP [6]: 2.34^[a]
SMILES: NC(=NO)c1cc(Cl)nnc1Oc1cccc(C2CC2)c1F [10-07]

LogP [6]: 2.19^[a]
SMILES: NC(=NO)c1cc(Cl)nnc1Oc1cccc(C2CC2)c1 [10-08]

LogP [6]: 1.91^[a]
SMILES: NC(=NO)c1cc(Cl)nnc1Oc1cccc(C(F)F)c1F [10-09]

SMILES: Cc1cc(C(N)=NOCC(=O)c2ccc(Cl)cc2)c(Oc2cccc(C(F)(F)F)c2)nn1 [12-03, N′-[2-(4-chlorophenyl)-2-oxo-ethoxy]-6-methyl-3-[3-(trifluoro-methyl)phenoxy]pyridazine-4-carboxamidine]
chromatographic logP [7]: 3.42

SMILES: COc1ccc(C(=O)C(F)(F)ON=C(N)c2cc(C)nnc2Oc2cccc(C(F)(F)F)c2)cc1 [12-14, N′-[1,1-difluoro-2-(4-methoxyphenyl)-2-oxo-ethoxy]-6-methyl-3-[3-(trifluoro-methyl)phenoxy]pyridazine-4-carboxamidine]
chromatographic logP [7]: 3.13

SMILES: C=CCON=C(N)c1cc(C)nnc1Oc1cccc(C(F)(F)F)c1 [13-01, N′-allyloxy-6-methyl-3-[3-(trifluoromethyl)phenoxy]pyridazine-4-carboxamidine]
chromatographic logP (method [a]: LC-UV, acidic range, 0.1% formic acid in water and acetonitrile, Table 21, compounds of formula (13)): 2.88

SMILES: O=Cc1cc(Cl)nnc1Oc1cccc(C(F)(F)F)c1 [16-01, 6-chloro-3-[3-(trifluoromethyl)phenoxy]pyridazine-4-carbaldehyde]
chromatographic logP (method [a]: LC-UV, acidic range, 0.1% formic acid in water and acetonitrile, Table 25, compound of formula (16)): 2.04

SMILES: O/N=C/c1cc(Cl)nnc1Oc1cccc(C(F)(F)F)c1 [17-01, 6-chloro-3-[3-(trifluoromethyl)phenoxy]pyridazine-4-carbaldehyde oxime]
chromatographic logP (reversed phase HPLC column, method [a]: LC-UV, acidic range, 0.1% formic acid in water and acetonitrile, Table 27, compound of formula (17)): 2.88

SMILES: Cc1ccc(CC(CCl)NC(=NO)c2cc(Cl)nnc2Oc2cccc(C(F)(F)F)c2)c(C)c1 (centres unmarked) [20-01, 6-chloro-N-[1-(chloromethyl)-2-(2,4-dimethylphenyl)ethyl]-N′-hydroxy-3-[3-(trifluoromethyl)phenoxy]pyridazine-4-carboxamidine]
chromatographic logP (method [a], Table 29, compounds of formula (20), read-out: Log P): 4.34

SMILES: Cc1ccc(CC(CCl)NC(=O)c2cc(Cl)nnc2Oc2cccc(C(F)(F)F)c2)c(C)c1 (centres unmarked) [21-01, 6-chloro-N-[1-(chloromethyl)-2-(2,4-dimethylphenyl)ethyl]-3-[3-(trifluoro-methyl)phenoxy]pyridazine-4-carboxamide]
chromatographic logP (method [a], Table 33, compounds of formula (21)): 5
